Results as given in patent US20060069132A1, “Azolecarboxamide herbicides” (priority 2004, published 2006).

How the values were obtained:
[1] = tested on: barnyardgrass; assay: Test A pre-/postemergence herbicide test; assay type: in vivo, Echinochloa crus-galli
In short: (§1)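 Seeds sown in sandy loam received a preemergence directed soil spray of compound in non-phytotoxic solvent with surfactant; postemergence plants (2–10 cm, one- to two-leaf stage) were sprayed to runoff at the same time. After ~10 days in greenhouse, injury was rated visually versus untreated controls (0 = no effect, 100 = complete control).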

[2] = tested on: large crabgrass; assay: Test A pre-/postemergence herbicide test; assay type: in vivo, Digitaria sanguinalis
In short: as §1

[3] = tested on: giant foxtail; assay: Test A pre-/postemergence herbicide test; assay type: in vivo, Setaria faberi
In short: as §1

[4] = tested on: morningglory; assay: Test A pre-/postemergence herbicide test; assay type: in vivo, Ipomoea spp.
In short: as §1

[5] = tested on: redroot pigweed; assay: Test A pre-/postemergence herbicide test; assay type: in vivo, Amaranthus retroflexus
In short: as §1

[6] = tested on: velvetleaf; assay: Test A pre-/postemergence herbicide test; assay type: in vivo, Abutilon theophrasti
In short: as §1

[7] = tested on: barnyardgrass; assay: Test B pre-/postemergence herbicide test; assay type: in vivo, Echinochloa crus-galli; conditions: for Barnyardgrass plant response rating: postemergence
In short: (§2)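 Greenhouse pot assay with simultaneous preemergence (treated seed) and postemergence (2–18 cm seedlings) applications of surfactant-containing, non-phytotoxic solvent formulations. Response scored visually 13–15 days later on a 0–100 scale, 100 meaning complete control.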

[8] = tested on: Surinam grass; assay: Test B pre-/postemergence herbicide test; assay type: in vivo, Urochloa decumbens; conditions: for Surinam Grass plant response rating: postemergence
In short: (§3)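 Pre: seeds sown, then sprayed. Post: 1–4-leaf plants (2–18 cm) sprayed at the same time. Paddy: flooded, treated at 2-leaf stage. Formulation: non-phytotoxic solvent with surfactant. Greenhouse 13–15 days; visual 0–100 score relative to controls.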

[9] = tested on: cocklebur; assay: Test B pre-/postemergence herbicide test; assay type: in vivo, Xanthium strumarium; conditions: for Cocklebur plant response rating: postemergence
In short: as §2

[10] = tested on: corn; assay: Test B pre-/postemergence herbicide test; assay type: in vivo, Zea mays; conditions: for Corn plant response rating: postemergence
In short: as §3

[11] = tested on: large crabgrass; assay: Test B pre-/postemergence herbicide test; assay type: in vivo, Digitaria sanguinalis; conditions: for Crabgrass, Large plant response rating: postemergence
In short: as §3

[12] = tested on: giant foxtail; assay: Test B pre-/postemergence herbicide test; assay type: in vivo, Setaria faberi; conditions: for Foxtail, Giant plant response rating: postemergence
In short: as §3

[13] = tested on: lambsquarters; assay: Test B pre-/postemergence herbicide test; assay type: in vivo, Chenopodium album; conditions: for Lambsquarters plant response rating: postemergence
In short: as §3

[14] = tested on: morningglory; assay: Test B pre-/postemergence herbicide test; assay type: in vivo, Ipomoea coccinea; conditions: for Morningglory plant response rating: postemergence
In short: as §2

[15] = tested on: pigweed; assay: Test B pre-/postemergence herbicide test; assay type: in vivo, Amaranthus retroflexus; conditions: for Pigweed plant response rating: postemergence
In short: as §3

[16] = tested on: rice; assay: Test B pre-/postemergence herbicide test; assay type: in vivo, Oryza sativa; conditions: preemergence
In short: as §3

[17] = tested on: velvetleaf; assay: Test B pre-/postemergence herbicide test; assay type: in vivo, Abutilon theophrasti; conditions: for Velvetleaf plant response rating: postemergence
In short: as §3

[18] = tested on: blackgrass; assay: Test B postemergence herbicide test; assay type: in vivo, Alopecurus myosuroides; conditions: postemergence
In short: (§4)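 Greenhouse test; postemergence application to plants at 1–4 leaves (2–18 cm); paddy species at 2 leaves; evaluated visually vs controls at 13–15 days; scale 0–100 (100 = complete control).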

[19] = tested on: wheat; assay: Test B postemergence herbicide test; assay type: in vivo, Triticum aestivum; parameters: key to Wheat plant response rating: 0 = no effect, 100 = complete control; conditions: postemergence
In short: (§5)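 Scale 0–100: zero equals no visible effect, 100 complete control, judged by eye relative to controls. Timing: 13 to 15 days in greenhouse post-treatment. Growth stage at spraying: two leaves (paddy) or one to four leaves, 2–18 cm (postemergence).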

[20] = tested on: wild oat; assay: Test B postemergence herbicide test; assay type: in vivo, Avena fatua; conditions: postemergence
In short: as §5

[21] = tested on: rice; assay: Test B flooded paddy test; assay type: in vivo, Oryza sativa; conditions: 1000 g ai/ha, scale 0 to 100 (0 no effect, 100 complete control)
In short: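 Plants grow to 1- to 4-leaf stage (2–18 cm) for postemergence spraying, or to 2-leaf stage for the paddy test. Formulated compound is applied. Greenhouse holding lasts 13–15 days. Response is scored visually relative to controls, 0 no effect to 100 complete control; a dash means no result.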

[22] = tested on: small flower umbrella sedge; assay: Test B flooded paddy test; assay type: in vivo, Cyperus difformis; conditions: 1000 g ai/ha, scale 0 to 100 (0 no effect, 100 complete control)
In short: as §4

[23] = tested on: ducksalad; assay: Test B flooded paddy test; assay type: in vivo, Heteranthera limosa; conditions: 1000 g ai/ha, scale 0 to 100 (0 no effect, 100 complete control)
In short: as §4

[24] = tested on: barnyardgrass; assay: Test B flooded paddy test; assay type: in vivo, Echinochloa crus-galli; conditions: 1000 g ai/ha, scale 0 to 100 (0 no effect, 100 complete control)
In short: as §4

[25] = Postemergence, 500 g ai/ha, 0 to 100 scale, 0 no effect, 100 complete control
[26] = Postemergence, 2000 g ai/ha, 0 to 100 scale, 0 no effect, 100 complete control
[27] = Preemergence, 2000 g ai/ha, visual rating, 0 to 100 scale (0 no effect, 100 complete control)
[28] = preemergence, 500 g ai/ha, visual injury, 0 to 100 scale (0 no effect, 100 complete control)
[29] = 125 g ai/ha, 0 is no effect, 100 is complete control, preemergence
[30] = 125 g ai/ha, visual rating, scale 0 (no effect) to 100 (complete control)
[31] = 500 g ai/ha, visual rating, 0 = no effect, 100 = complete control, preemergence
[32] = 500 g ai/ha, scale 0 to 100, 0 is no effect, 100 is complete control

Cn1nc(C(C)(C)C)cc1C(=O)Nc1cccc(C(=O)NC2CC2)n1 [Compound 315]
0: Foxtail, Giant plant response rating [3, 25] | Plant response rating, Foxtail, Giant [3, 26] | Foxtail, Giant plant response rating [3, 28] | Morningglory plant response rating [4, 25] | Plant response rating, Morningglory [4, 26] | Velvetleaf plant response rating [6, 25] | Plant response rating, Velvetleaf [6, 26] | Plant response rating (0 to 100 scale), Barnyardgrass [7, 29] | Plant response rating (0 to 100 scale), Surinam Grass [8, 29] | Plant response rating (0 to 100 scale), Cocklebur [9, 29] | Plant response rating, Cocklebur [9, 31] | Plant response rating (0 to 100 scale), Corn [10, 29] | Plant response rating, Corn [10, 31] | Plant response rating (0 to 100 scale), Crabgrass, Large [11, 29] | Crabgrass, Large plant response rating [11, 30] | Plant response rating (0 to 100 scale), Foxtail, Giant [12, 29] | Foxtail, Giant plant response rating [12, 30] | Plant response rating (0 to 100 scale), Lambsquarters [13, 29] | Plant response rating (0 to 100 scale), Morningglory [14, 29] | Morningglory plant response rating [14, 30] | Plant response rating, Morningglory [14, 31] | Plant response rating (0 to 100 scale), Rice ([16]; 125 g ai/ha, 0 is no effect, 100 is complete control) | Plant response rating, Rice ([16]; 500 g ai/ha, visual rating, 0 = no effect, 100 = complete control) | Blackgrass plant response rating [18, 30] | Blackgrass plant response rating [18, 32] | Wheat plant response rating [19, 30] | Wheat plant response rating [19, 32] | Oat, Wild plant response rating [20, 30] | Rice plant response rating [21] | Sedge, Umbrella plant response rating [22] | Ducksalad plant response rating [23] | Barnyardgrass plant response rating [24]
60: Lambsquarters plant response rating [13, 32]
30: Velvetleaf plant response rating [6, 27]
100: Plant response rating, Pigweed [15, 31]
5: Barnyardgrass plant response rating [1, 27] | Barnyardgrass plant response rating [1, 28] | Crabgrass, Large plant response rating [2, 28] | Morningglory plant response rating [4, 28]
10: Foxtail, Giant plant response rating [3, 27] | Morningglory plant response rating [4, 27] | Pigweed plant response rating [5, 25] | Velvetleaf plant response rating [6, 28] | Barnyardgrass plant response rating [7, 30] | Plant response rating, Surinam Grass [8, 31] | Corn plant response rating [10, 30] | Crabgrass, Large plant response rating [11, 32] | Foxtail, Giant plant response rating [12, 32] | Pigweed plant response rating [15, 30] | Plant response rating (0 to 100 scale), Velvetleaf [17, 29] | Oat, Wild plant response rating [20, 32]
20: Barnyardgrass plant response rating [1, 25] | Plant response rating, Barnyardgrass [1, 26] | Crabgrass, Large plant response rating [2, 25] | Plant response rating, Crabgrass, Large [2, 26] | Plant response rating, Pigweed [5, 26] | Plant response rating, Barnyardgrass [7, 31] | Barnyardgrass plant response rating [7, 32] | Surinam Grass plant response rating [8, 30] | Surinam Grass plant response rating [8, 32] | Cocklebur plant response rating [9, 30] | Cocklebur plant response rating [9, 32] | Corn plant response rating [10, 32] | Plant response rating, Crabgrass, Large [11, 31] | Plant response rating, Foxtail, Giant [12, 31] | Morningglory plant response rating [14, 32] | Plant response rating (0 to 100 scale), Pigweed [15, 29] | Velvetleaf plant response rating [17, 30] | Plant response rating, Velvetleaf [17, 31] | Velvetleaf plant response rating [17, 32]
15: Crabgrass, Large plant response rating [2, 27] | Pigweed plant response rating [5, 28]
45: Pigweed plant response rating [5, 27]
50: Lambsquarters plant response rating [13, 30] | Pigweed plant response rating [15, 32]
80: Plant response rating, Lambsquarters [13, 31]
